Measurements from ChEMBL document CHEMBL1147374, “Chemical constituents of Aristolochia rigida and mutagenic activity of aristolochic acid IV” (J Nat Prod, 1993).

What was measured:
Details in all cases: salmonella enterica subsp. enterica serovar typhimurium; call rule not given here
Salmonella typhimurium [1] = test: Mutagenic activity in Salmonella Typhimurium TA100 assessed as increase in number of histidine revertants up to 100 ug/plate after 48 hrs in presence of rat S9 liver homogenate by Ames test; assay type: toxicity, organism-based, Liver S9 fraction
Salmonella typhimurium [2] = test: Toxicity in Salmonella Typhimurium TA100 up to 100 ug/plate; assay type: organism-based
Salmonella typhimurium [3] = test: Mutagenic activity in Salmonella typhimurium TA100 assessed as number of histidine revertants after 48 hrs in presence of phenobarbital treated rat S9 liver homogenate by Ames test; assay type: toxicity, organism-based, Liver S9 fraction
Salmonella typhimurium [4] = test: Toxicity in Salmonella Typhimurium TA100 at 500 ug/plate; assay type: organism-based

COc1cc(OC)c2cc([N+](=O)[O-])c3c(C(=O)O)cc4c(c3c2c1)OCO4 [ARISTOLOCHIC ACID IV]
Activity (Salmonella typhimurium [1]): Active | Activity (Salmonella typhimurium [2]): Non-toxic | Activity (Salmonella typhimurium [3]): Dose-dependent effect | Activity (Salmonella typhimurium [4]): Toxic
